This is an account of results in paper PMC3353973 (PLoS ONE, 2012).

One assay has as its system HIV-1 BaL. As to conditions: TZM-bl cells; for IC50: read-out: IC50, inhibition of HIV-1 infectivity, strain BaL, R5 strain BaL, moi 4, luciferase read-out after 48 h.
For a further assay, the system named is Nipah virus. The arrangement: species or system golden hamster (Mesocricetus auratus). The settings on record: hamster, in vivo.
Assay [1] deals with Nipah virus envelope glycoproteins mediated fusion (Nipah virus, UniProt Q9IH63). The experiment in a line: cell-based. The assay is classed as cell-based.
In assay [2] the target is type 3 HPIV envelope glycoproteins mediated fusion (Human parainfluenza 3 virus, UniProt P06828). The experiment in a line: cell-based. The assay is classed as cell-based, human parainfluenza virus type 3 (HPIV3).
In assay [3] the test system is Nipah virus (isolate UMMC1).

As usually defined, the IC50 is the concentration at which inhibition is half-maximal.

Like-named read-outs stand apart in the source and are kept apart here. Numbered stars: 1 amine (or outer) side, 2 acyl side, 3 side chain; on linkers, the order of the positions; unused ones are H or OH. Bridge positions count the residues as written; N and C are the ends. I, II: the chains in the order shown. * marks the point of attachment. X1 = CC(C)CCC[C@@H](C)[C@H]1CC[C@H]2[C@@H]3CC=C4C[C@@H](OCCN(CCNC(=O)CCOCCOCCOCCOCCNC(=O)CCCN5C(=O)CC([*:1])C5=O)CCNC(=O)CCOCCOCCOCCOCCNC(=O)CCCN5C(=O)CC([*:2])C5=O)CC[C@]4(C)[C@H]3CC[C@]12C; Cam = NC(=O)C*

Chain of Nipah virus envelope glycoproteins mediated fusion (Q9IH63 110-546 limits assumed): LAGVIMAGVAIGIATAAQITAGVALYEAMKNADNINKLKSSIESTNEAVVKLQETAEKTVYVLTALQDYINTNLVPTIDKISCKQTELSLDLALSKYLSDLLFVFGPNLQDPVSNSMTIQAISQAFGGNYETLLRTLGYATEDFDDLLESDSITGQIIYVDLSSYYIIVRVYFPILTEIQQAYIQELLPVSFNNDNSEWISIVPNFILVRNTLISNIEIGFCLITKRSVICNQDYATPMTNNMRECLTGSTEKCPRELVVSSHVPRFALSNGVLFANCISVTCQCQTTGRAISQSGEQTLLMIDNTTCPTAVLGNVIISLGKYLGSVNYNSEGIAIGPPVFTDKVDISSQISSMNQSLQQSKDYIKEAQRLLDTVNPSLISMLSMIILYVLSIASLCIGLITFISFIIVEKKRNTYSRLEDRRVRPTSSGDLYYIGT
Chain of Nipah virus envelope glycoproteins mediated fusion (Q9IH63 27-109 partner limits assumed): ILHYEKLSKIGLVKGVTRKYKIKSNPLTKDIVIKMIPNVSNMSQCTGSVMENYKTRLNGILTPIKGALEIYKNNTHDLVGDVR
Chain of type 3 HPIV envelope glycoproteins mediated fusion (P06828 19-109): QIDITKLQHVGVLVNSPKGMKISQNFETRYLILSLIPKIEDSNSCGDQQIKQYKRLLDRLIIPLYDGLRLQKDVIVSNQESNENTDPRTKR
Chain of type 3 HPIV envelope glycoproteins mediated fusion (P06828 110-539): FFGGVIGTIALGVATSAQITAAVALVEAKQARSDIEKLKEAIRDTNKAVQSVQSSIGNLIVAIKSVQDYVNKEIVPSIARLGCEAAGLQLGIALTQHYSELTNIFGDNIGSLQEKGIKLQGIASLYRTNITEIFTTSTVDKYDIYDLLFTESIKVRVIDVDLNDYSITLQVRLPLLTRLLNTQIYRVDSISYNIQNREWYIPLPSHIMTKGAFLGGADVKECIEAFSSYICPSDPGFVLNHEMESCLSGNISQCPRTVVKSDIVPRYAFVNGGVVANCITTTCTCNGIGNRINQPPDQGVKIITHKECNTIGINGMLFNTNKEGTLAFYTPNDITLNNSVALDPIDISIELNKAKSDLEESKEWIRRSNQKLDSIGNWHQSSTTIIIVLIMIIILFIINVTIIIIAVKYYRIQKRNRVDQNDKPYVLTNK

As for `CC[C@H](C)[C@H](NC(=O)[C@H](CC(C)C)NC(=O)[C@H](CO)NC(=O)[C@H](Cc1c[nH]cn1)NC(=O)[C@@H](NC(=O)[C@H](CC(C)C)NC(=O)[C@H](CO)NC(=O)[C@@H](NC(=O)[C@H](Cc1ccc(O)cc1)NC(=O)[C@H](CC(N)=O)NC(=O)[C@H](CC(N)=O)NC(=O)[C@@H](NC(=O)[C@H](CCC(=O)O)NC(=O)[C@H](CCCNC(=N)N)NC(=O)[C@H](CC(=O)O)NC(=O)[C@H](Cc1c[nH]c2ccccc12)NC(=O)[C@H](CCC(=O)O)NC(=O)[C@H](CCSC)NC(=O)[C@H](Cc1c[nH]c2ccccc12)NC(C)=O)[C@@H](C)CC)[C@@H](C)O)[C@@H](C)CC)C(=O)N[C@@H](CCC(=O)O)C(=O)N[C@@H](CCC(=O)O)C(=O)N[C@@H](CO)C(=O)N[C@@H](CCC(N)=O)C(=O)N[C@@H](CC(N)=O)C(=O)N[C@@H](CCC(N)=O)C(=O)N[C@@H](CCC(N)=O)C(=O)N[C@@H](CCC(=O)O)C(=O)N[C@@H](CCCCN)C(=O)N[C@@H](CC(N)=O)C(=O)N[C@@H](CCC(=O)O)C(=O)N[C@@H](CCC(N)=O)C(=O)N[C@@H](CCC(=O)O)C(=O)N[C@@H](CC(C)C)C(=O)N[C@@H](CC(C)C)C(=O)NCC(=O)N[C@@H](CO)C(=O)NCC(=O)N[C@@H](CSC1CC(=O)N(CCCC(=O)NCCOCCOCCOCCOCCC(=O)NCCN(CCNC(=O)CCOCCOCCOCCOCCNC(=O)CCCN2C(=O)CC(SC[C@H](NC(=O)CNC(=O)[C@H](CO)NC(=O)CNC(=O)[C@H](CC(C)C)NC(=O)[C@H](CC(C)C)NC(=O)[C@H](CCC(=O)O)NC(=O)[C@H](CCC(N)=O)NC(=O)[C@H](CCC(=O)O)NC(=O)[C@H](CC(N)=O)NC(=O)[C@H](CCCCN)NC(=O)[C@H](CCC(=O)O)NC(=O)[C@H](CCC(N)=O)NC(=O)[C@H](CCC(N)=O)NC(=O)[C@H](CC(N)=O)NC(=O)[C@H](CCC(N)=O)NC(=O)[C@H](CO)NC(=O)[C@H](CCC(=O)O)NC(=O)[C@H](CCC(=O)O)NC(=O)[C@@H](NC(=O)[C@H](CC(C)C)NC(=O)[C@H](CO)NC(=O)[C@H](Cc3c[nH]cn3)NC(=O)[C@@H](NC(=O)[C@H](CC(C)C)NC(=O)[C@H](CO)NC(=O)[C@@H](NC(=O)[C@H](Cc3ccc(O)cc3)NC(=O)[C@H](CC(N)=O)NC(=O)[C@H](CC(N)=O)NC(=O)[C@@H](NC(=O)[C@H](CCC(=O)O)NC(=O)[C@H](CCCNC(=N)N)NC(=O)[C@H](CC(=O)O)NC(=O)[C@H](Cc3c[nH]c4ccccc34)NC(=O)[C@H](CCC(=O)O)NC(=O)[C@H](CCSC)NC(=O)[C@H](Cc3c[nH]c4ccccc34)NC(C)=O)[C@@H](C)CC)[C@@H](C)O)[C@@H](C)CC)[C@@H](C)CC)C(N)=O)C2=O)CCO[C@H]2CC[C@@]3(C)C(=CC[C@H]4[C@@H]5CC[C@H]([C@H](C)CCCC(C)C)[C@@]5(C)CC[C@@H]43)C2)C1=O)C(N)=O` (stereo partly shown) [HIV-P4], the “Potency increase versus the untagged HR-derived peptide (HIV-P2), strain BaL” value with HIV-1 BaL (ratio of IC50) is listed as 6,000 fold. Moreover, the half-inhibitory concentration (IC50) with HIV-1 BaL was found to be 0.01 ± 0.01 nM.

On to “I: Ac-VALDPIDISIVLNKAKSDLEESKEWIRRSNGKLDSIGSGSGC-NH2 / II: Ac-VALDPIDISIVLNKAKSDLEESKEWIRRSNGKLDSIGSGSGC-NH2 (linker I:42-II:42 via X1) [HPIV-P4]”, for which, in the assay with Nipah virus, the “Onset of illness / lifespan of NiV-infected hamsters” value is given as “onset of the illness was considerably delayed in the other four, leading to a significantly extended lifespan” and the “Survival of NiV-infected hamsters” value is “survival of one of the five animals”. In assay [1], the “Fold more potent than the cholesterol-tagged monomer (HPIV-P3), NiV fusion” value is given as “≈ 10 fold” and the IC50 was under 1 nM. For the same compound, in assay [2], the IC50 is under 10 nM and the “Relative fusion inhibitory potency in words, HPIV3 fusion” value is given as “considerably more potent than the cholesterol-tagged monomer”. The compound further came in with an IC50 in assay [3] (1 h) of 4.36 ± 1.3 nM.

In the case of “Ac-VALDPIDISIVLNKAKSDLEESKEWIRRSNGKLDSIGSGSGC(Cam)-NH2 [HPIV-P2]”, the IC50 in assay [1] and in assay [2] was over 100 nM throughout.

“Ac-VALDPIDISIVLNKAKSDLEESKEWIRRSNGKLDSI-GSGSG-C(PEG4-Chol)-NH2 [HPIV-P3]”: the IC50 in assay [1] (read-out: IC50, inhibition of NiV envelope glycoprotein mediated cell-to-cell fusion) is 1 to 10 nM; in assay [2] (read-out: IC50, inhibition of HPIV3 envelope glycoprotein mediated cell-to-cell fusion), 10 to 100 nM; in assay [3] (read-out: IC50, NiV live virus plaque reduction), 8.02 ± 0.66 nM. Moreover, the “Fold more potent than the untagged inhibitor (HPIV-P2), HPIV3 fusion” value in assay [2] is given as “≈ 10 fold”.

`CC[C@H](C)[C@H](NC(=O)[C@H](CC(C)C)NC(=O)[C@H](CO)NC(=O)[C@H](Cc1c[nH]cn1)NC(=O)[C@@H](NC(=O)[C@H](CC(C)C)NC(=O)[C@H](CO)NC(=O)[C@@H](NC(=O)[C@H](Cc1ccc(O)cc1)NC(=O)[C@H](CC(N)=O)NC(=O)[C@H](CC(N)=O)NC(=O)[C@@H](NC(=O)[C@H](CCC(=O)O)NC(=O)[C@H](CCCNC(=N)N)NC(=O)[C@H](CC(=O)O)NC(=O)[C@H](Cc1c[nH]c2ccccc12)NC(=O)[C@H](CCC(=O)O)NC(=O)[C@H](CCSC)NC(=O)[C@H](Cc1c[nH]c2ccccc12)NC(C)=O)[C@@H](C)CC)[C@@H](C)O)[C@@H](C)CC)C(=O)N[C@@H](CCC(=O)O)C(=O)N[C@@H](CCC(=O)O)C(=O)N[C@@H](CO)C(=O)N[C@@H](CCC(N)=O)C(=O)N[C@@H](CC(N)=O)C(=O)N[C@@H](CCC(N)=O)C(=O)N[C@@H](CCC(N)=O)C(=O)N[C@@H](CCC(=O)O)C(=O)N[C@@H](CCCCN)C(=O)N[C@@H](CC(N)=O)C(=O)N[C@@H](CCC(=O)O)C(=O)N[C@@H](CCC(N)=O)C(=O)N[C@@H](CCC(=O)O)C(=O)N[C@@H](CC(C)C)C(=O)N[C@@H](CC(C)C)C(=O)NCC(=O)N[C@@H](CO)C(=O)NCC(=O)N[C@@H](CSCC(N)=O)C(N)=O` [HIV-P2]: the IC50 in the assay on HIV-1 BaL was determined as 60.1 ± 84 nM.
